Reference: US4820721A, “1-aryl-5-(2-oxo-1-pyrrolidinyl)-1,2,3-triazolines as novel anticonvulsants” (priority 1988, dated 1989)

What was measured:
[1] = maximal electroshock seizure (MES) test; format: in vivo; conditions: Mus musculus; Phase II; male albino mice
Description: (§1) The anticonvulsant activity was evaluated by subjecting male albino mice to the MES test and the scMet test. The maximal electroshock seizure test (MES) was performed according to the method of Swinyard et al (J. Pharmacol. Exp. Ther. 106, 319, 1952), and abolition of the hind limb tonic extensor component of the maximal seizures was defined as protection. In the subcutaneous pentylenetetrazole seizure threshold test (scMet), 85 mg/kg of pentylenetetrazol was administered as a 0.5% solution subcutaneously in the posterior midline, and failure to observe even a threshold seizure (a single episode of clonic spasms of at least 5-s duration) was defined as protection.

[2] = subcutaneous pentylenetetrazole (Metrazole) seizure threshold (scMet) test; format: in vivo; conditions: Mus musculus, sc; Phase II; male albino mice; 85 mg/kg pentylenetetrazol s.c.
Description: as §1

[3] = Phase I anticonvulsant activity (MES and scMet tests); format: in vivo; conditions: Mus musculus, male albino mice, read-out: Activity, Phase I (active dose)
Description: They afford protection in both the scMet and MES seizure models. The 1-p-chlorophenyl-5-(2-oxo-1-pyrrolidinyl)-1,2,3-triazoline is active in the 100 mg/kg dose and the 1-phenyl-5-(2-oxo-1-pyrrolidinyl)-1,2,3-triazoline is active in the 300 mg/kg dose.
as §1

[4] = in vivo; set-up: species or system mice; conditions: mouse
Description: Neurotoxicity was evaluated by the rotorod ataxia test (Dunham et al, J. Am. Pharm. Assoc. Sci. Ed., 46, 208, 1957). The animal was placed on a wooden rod of 2.8-cm diameter rotating at 6 rpm. Normal mice can remain on a rod rotating at this speed indefinitely.

Row | Structure (SMILES) | ED50 [1] | ED50 [2] | minimal effective dose [3] | TD50 [4]
1 | O=C1CCCN1C1CN=NN1c1ccc(Cl)cc1 (centres unmarked) [1-p-chlorophenyl-5-(2-oxo-1-pyrrolidinyl)-1,2,3-triazoline] | 116 mg/kg | 77.2 mg/kg | 100 mg/kg | 249 mg/kg
2 | O=C1CCCN1C1CN=NN1c1ccccc1 (centres unmarked) [1-phenyl-5-(2-oxo-1-pyrrolidinyl)-1,2,3-triazoline] | – | – | 300 mg/kg | –
